Measured values from publication PMC6268140, “Absorption and Interaction of the Main Constituents from the Traditional Chinese Drug Pair Shaoyao-Gancao via a Caco-2 Cell Monolayer Model” (Molecules, 2012).

Tests used:
[1] = molecular target: P-glycoprotein (P-gp) (Homo sapiens, UniProt P08183); settings: Caco-2, 4 h, 50 µM, pH 7.4
Source text: To determine whether P-gp is involved in the transport of these compounds, their transports were studied in the presence of verapamil, a known inhibitor for P-gp.
All data were presented as means ± SD. […] Results were considered significant at p < 0.05.

[2] = Transport across Caco-2 cell monolayers (A-B and B-A directions); settings: human; for Papp A→B at 4 h: Caco-2, pH 7.4; for efflux ratio at 4 h: Caco-2, pH 7.4, Efflux ratio PBA/PAB; for Papp at 4 h: mean ± SD, n = 3
Procedure: (§1) Cells were cultured in a humidified atmosphere of 5% CO2 and 95% air at 37 °C. The Dulbecco’s modified Eagle’s medium was supplemented with 10% (v/v) fetal bovine serum, 1% nonessential amino acids, 100 U/mL penicillin, and 100 µg/mL streptomycin. When the cell culture reached 80% confluence, it was rinsed with phosphate-buffered saline and split using trypsin. For transport experiments, the cells were seeded on 3 μm porous polycarbonate cell culture inserts from Nunc, which has a surface area of 4.2 cm^2 at a density of 2,500,000 cells/cm^2. The culture media was replaced every other day. The monolayers were ready for experiments from 19 to 22 days after seeding. Well-developed Caco-2 cell monolayers with transepithelial electrical resistance (TEER) values greater than 400 Ω × cm^2 were used for the experiment.
(§2) Paeoniflorin, glycyrrhizic acid, and liquiritin were dissolved in dimethyl sulfoxide (DMSO)-ethanol (v/v = 1/1) to prepare the stock solution (10 mM) for each single compound. The above-mentioned solutions were further diluted with Hank’s balanced salt solution (HBSS, pH = 7.4) to obtain a series of working standard solutions, and the final concentrations of paeoniflorin, glycyrrhizic acid, or liquiritin in the transport samples were 50 µM, 20 µM, or 50 µM, respectively. Moreover, the final concentrations of the organic solvent of different samples were controlled below 0.5% to ensure the safety to the cells.
(§3) Dry Shaoyao (100 g) or Gancao (100 g) herb materials were extracted twice with boiling water for 1 h each time, and the solutions were filtered through gauze. Then, the filtrates were merged and concentrated to 100 mL as the Shaoyao extract (1 g/mL) containing paeoniflorin (22.41 mg/mL) or Gancao extract (1 g/mL) containing glycyrrhizic acid (16.35 mg/mL) and liquiritin (22.38 mg/mL). Subsequently, the single extract or mixed extract was dissolved in HBSS (pH = 7.4) to obtain a series of working standard solutions, and the final concentrations of paeoniflorin, glycyrrhizic acid, or liquiritin in the transport samples were 50 µM, 22 µM, or 54 µM, respectively. In addition, the ratio of Shaoyao and Gancao in the mixed extract was 1:1. Meanwhile, testosterone (internal standard) was dissolved in acetonitrile with acetic acid (v/v = 94/6) to 100 µM. In addition, verapamil was dissolved in water to 5 mM when it was used.
(§4) The cell monolayers were washed three times with 37 °C HBSS (pH 7.4). The monolayers were incubated with the buffer for 1 h, and the incubation medium was then aspirated. Afterwards, a single component or extract solution was loaded on the apical or basolateral side. When the transport inhibitor (verapamil) was used, it was loaded only at the donor side. The amounts of transported drugs in the receiver media were determined by ultra-performance liquid chromatography (UPLC). In the test for each solution, four donor samples (400 μL) and four receiver samples (400 μL) were taken at time intervals of 1, 2, 3, and 4 h, followed by an immediate replacement with fresh donor solution (400 μL) to the donor side or fresh buffer (400 μL) to the receiver side.
(§5) To each transport sample (400 μL), 100 μL of acetonitrile containing 100 μM of testosterone was added as an internal standard and a preservative. The resulting mixture was vortexed for 30 s and then centrifuged at 15,000 rpm for 15 min, and the supernatant obtained was analyzed by UPLC.
(§6) UPLC was used to determine the concentration of the compounds in the transport samples.

[3] = test system: Caco-2 cell monolayers; assay: as above; settings: mixture of Shaoyao-Gancao extract vs. Gancao extract; 22 μM
Procedure: as §1, §2, §3, §4, §5, §6

[4] = single component solution, paeoniflorin 50 μM, glycyrrhizic acid 20 μM, liquiritin 50 μM
[5] = Caco-2, pH 7.4, Papp PAB, in the mixture of Shaoyao-Gancao extract (1:1), paeoniflorin 50 μM, glycyrrhizic acid 22 μM, liquiritin 54 μM
[6] = Caco-2, pH 7.4, Papp PAB, paeoniflorin in Shaoyao extract (50 μM), glycyrrhizic acid (22 μM) and liquiritin (54 μM) in Gancao extract
[7] = Caco-2, pH 7.4, Papp PBA (secretary permeability), single component solution, paeoniflorin 50 μM, glycyrrhizic acid 20 μM, liquiritin 50 μM, HBSS pH 7.4
[8] = Caco-2, pH 7.4, Papp PBA, in the mixture of Shaoyao-Gancao extract (1:1), paeoniflorin 50 μM, glycyrrhizic acid 22 μM, liquiritin 54 μM
[9] = Caco-2, pH 7.4, Papp PBA, paeoniflorin in Shaoyao extract (50 μM), glycyrrhizic acid (22 μM) and liquiritin (54 μM) in Gancao extract

Chain of P-glycoprotein (P-gp) (P08183 whole entry): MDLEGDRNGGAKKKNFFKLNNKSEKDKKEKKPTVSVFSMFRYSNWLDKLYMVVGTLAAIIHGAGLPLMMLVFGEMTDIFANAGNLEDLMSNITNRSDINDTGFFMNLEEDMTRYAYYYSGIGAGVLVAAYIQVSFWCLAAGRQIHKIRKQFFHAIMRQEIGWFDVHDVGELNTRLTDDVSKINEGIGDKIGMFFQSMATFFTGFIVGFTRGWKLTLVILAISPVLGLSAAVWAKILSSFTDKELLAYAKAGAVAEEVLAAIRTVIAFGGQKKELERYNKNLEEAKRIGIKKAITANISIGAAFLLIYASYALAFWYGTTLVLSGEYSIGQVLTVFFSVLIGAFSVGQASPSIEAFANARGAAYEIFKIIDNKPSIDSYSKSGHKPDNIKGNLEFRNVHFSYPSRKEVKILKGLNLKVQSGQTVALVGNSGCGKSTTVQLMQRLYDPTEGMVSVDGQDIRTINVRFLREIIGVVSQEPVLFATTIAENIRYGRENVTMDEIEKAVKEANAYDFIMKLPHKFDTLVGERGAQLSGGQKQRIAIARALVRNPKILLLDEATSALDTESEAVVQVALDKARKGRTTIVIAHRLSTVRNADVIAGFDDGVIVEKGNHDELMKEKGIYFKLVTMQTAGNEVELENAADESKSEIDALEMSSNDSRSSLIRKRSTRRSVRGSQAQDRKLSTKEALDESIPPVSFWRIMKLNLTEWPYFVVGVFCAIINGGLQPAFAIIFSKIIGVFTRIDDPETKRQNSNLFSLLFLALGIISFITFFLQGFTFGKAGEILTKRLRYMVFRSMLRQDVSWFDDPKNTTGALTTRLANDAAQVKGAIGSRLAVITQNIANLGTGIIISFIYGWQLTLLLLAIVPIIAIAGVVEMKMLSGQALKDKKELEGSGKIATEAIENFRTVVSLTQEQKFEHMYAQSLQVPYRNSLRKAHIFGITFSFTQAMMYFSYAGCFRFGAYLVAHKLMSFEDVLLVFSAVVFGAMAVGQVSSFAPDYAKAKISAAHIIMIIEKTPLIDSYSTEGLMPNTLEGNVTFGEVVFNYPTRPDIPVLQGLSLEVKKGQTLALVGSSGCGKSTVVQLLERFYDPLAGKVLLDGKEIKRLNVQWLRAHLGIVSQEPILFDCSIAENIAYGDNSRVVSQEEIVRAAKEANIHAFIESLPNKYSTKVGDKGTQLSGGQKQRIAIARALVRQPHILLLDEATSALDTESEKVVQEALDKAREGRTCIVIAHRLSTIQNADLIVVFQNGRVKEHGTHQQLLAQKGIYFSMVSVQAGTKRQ

Row | SMILES | Decrease in the efflux ratio after addition of verapamil [1] [%] | Papp A→B at 4 h [2] [×10⁻⁶ cm/s] | efflux ratio at 4 h [2, 4] | Papp at 4 h [2, 5] [×10⁻⁶ cm/s] | Papp at 4 h [2, 6] [×10⁻⁶ cm/s] | Papp at 4 h [2, 7] [×10⁻⁶ cm/s] | Papp at 4 h [2, 8] [×10⁻⁶ cm/s] | Papp at 4 h [2, 9] [×10⁻⁶ cm/s] | Increase of PAB in the mixture compared to PAB in the Gancao extract [3] | efflux ratio at 4 h, 22 µM ([2]; Caco-2, pH 7.4, Decrease of efflux ratio in the mixture compared to the Gancao extract, mixture of Shaoyao-Gancao extract vs. Gancao extract, 22 μM)
1 | C[C@@]12C[C@@]3(O)O[C@@H](O1)[C@]1(COC(=O)c4ccccc4)[C@H]3C[C@@]12O[C@@H]1O[C@H](CO)[C@@H](O)[C@H](O)[C@H]1O [Paeoniflorin] | 54.29 | 0.61 ± 0.09 | 2.1 | 1.96 ± 0.08 | 0.94 ± 0.11 | 1.28 ± 0.05 | 1.77 ± 0.07 | 1.3 ± 0.02 |  | 
2 | CC1(C)[C@@H](O[C@H]2O[C@H](C(=O)O)[C@@H](O)[C@H](O)[C@H]2O[C@@H]2O[C@H](C(=O)O)[C@@H](O)[C@H](O)[C@H]2O)CC[C@]2(C)[C@H]3C(=O)C=C4[C@@H]5C[C@@](C)(C(=O)O)CC[C@]5(C)CC[C@@]4(C)[C@]3(C)CC[C@@H]12 [Glycyrrhizic acid] |  | 0.36 ± 0.04 | 2.31 | 1.17 ± 0.08 | 0.41 ± 0.05 | 0.83 ± 0.07 | 1.21 ± 0.06 | 0.89 ± 0.04 | over two times | > 1
3 | O=C1C[C@@H](c2ccc(O[C@@H]3O[C@H](CO)[C@@H](O)[C@H](O)[C@H]3O)cc2)Oc2cc(O)ccc21 [Liquiritin] | 60.47 | 0.73 ± 0.04 | 2.15 | 1.31 ± 0.06 | 1.2 ± 0.06 | 1.57 ± 0.05 | 1.58 ± 0.04 | 1.59 ± 0.02 |  | 
